This is an account of results in US6458840B2, “Use of valproic acid analog for the treatment and prevention of migraine and affective illness” (American Biogenetic Sciences, Inc., priority 1998, dated 2002).

Values after ≈ are worked out from the molar mass of the structure shown. Values joined by “and” are separate entries in the source; they are usually repeats but may differ in a detail not shown here. Equal entries are not always repeated.

A short description of one series: Rectal body temperature. The class given is in vivo, rat. The note with it: for BODY TEMP., day of exper., 13′ post appl.: mean (X). The method, then:
Female Wistar rats (Harlan-Winkelmann, Borchen, Germany) were obtained at an age of 11-12 weeks (body weight 180-200 g). Female rats were employed because they are known to eliminate drugs less rapidly than do males, which was thought to be an advantage for drug potency studies. Rats were kept separately in plastic cages at controlled temperature (23° C.) and humidity (about 50 %) with a 12-h light cycle beginning at 7 a.m. They received standard diet (Altromin; Lage, F.R.G.), tap water and libitum. All drug injections were done in the afternoon at an ambient temperature of 23-25° C. The regular protocol started by taking the rats out of their individual cage, weighing them and joining them together on a table with six open plastic cages for better behavioral observations. Therefore animals were able to move from one cage to another and either to have social contact or to avoid it. After a short adaptation time of approximately 15 minutes, rectal body temperatures were recorded followed by drug or vehicle application.
(§1) Tests included open field observations, rotarod test and body temperature. Tests were always performed in the same manner in control and drug experiments at two different times, just before application of drug or vehicle and 13 minutes after application.
In addition to these quantitative estimations of neurological deficit, behavioral alterations observed after administration of 2-propyl-4-hexynoic acid and valproate noted in the cage and by placing the animals in an open field of 90-100 cm diameter. Muscle tone was estimated by palpation of the abdomen. The extent of deficits in behavior after administration of the compounds was determined by a rating system (Loscher et al. 1987). In short, animals were taken out of the cage, placed in an open field, observed for about 1 minute and rated separately for ataxia, abducted hindlimbs, reduced righting, flat body posture, circling, Straub tail, piloerection, hypolocomotion and hyperlocomotion (abdominal muscle tone was evaluated by palpation at the end of the period of observation). All other parameters except ataxia were scored from 0 to 3: 0-absent; 1-equivocal; 2-present; 3- intense. For ataxia (06): 1 -slight ataxia in hind-legs (tottering of the hind quarters); 2-more pronounced ataxia with dragging of hind legs; 3-further increase of ataxia and more pronounced dragging of hind legs; 4-marked ataxia, animals lose balance during forward locomotion; 5- very marked ataxia with frequent loss of balance during forward locomotion; 6-permanent loss of righting reflexes, but animal still attempts to move forward. Rectal body temperature was measured by an electronic thermometer. Body weight of the animals was recorded once daily before drug injection. Significance of differences in behavior between pre-drug and post-drug data determined in the same group of animals was calculated by the Wilcoxon signed rank test for paired replicates and for body temperature by Student's paired t-test (SigmaStat for Windows, version 1.0). Differences in body temperature were always compared only within the experimental day with the pre-drug time as control to one post-drug time.

Series [1] is described as follows: Plasma drug levels after treatment and kindling stimulation. The note with it: same dose of both drugs, immediately after treatment and kindling stimulation; for Plasma Drug Levels, Average: average of 8 rats; for Plasma Drug Levels, individual rats: each line one rat (784-793). It counts as in vivo, rat. The text has this: Since there were differences in potencies between both compounds, plasma was obtained from rats immediately after treatment and kindling stimulation during one dose experiment.

Series [2] is described as follows: Rotarod test (neurological deficit) in kindled rats. It counts as in vivo, rat. How it is done: as §1
The rotarod test was carried out with a rod of 6 cm diameter and rotation speed of 8 r.p.m. Neurological deficit was indicated by inability of the animals to maintain their equilibrium for at least 1 min on the rotating rod. Rats had to be trained prior to drug experiments to maintain their balance on the rod. After drug or vehicle treatment, rats which were not able to maintain their equilibrium on the rod for 1 minute were put again on the rod twice.
(The rotarod test checks motor coordination on a turning rod.)

The nature of a further series: Drug solubility test. Conditions: read-out: concentration in drug solubility test. The class given is physicochemical.
The mark [3] stands for this setting: 50 mg/kg i.p., 13′ after application.
Where [4] appears, read: 75 mg/kg i.p., 13′ after application.
Where [5] appears, read: doses 50, 75, 100, 200 mg/kg i.p.

Regarding `CCCC(CCC)C(=O)O` [Valproate, valproic acid], the “BODY TEMP., day of exper., 13′ post appl.” value in the series “Rectal body temperature” (50 mg/kg i.p.) was 38.82 °C; in the series “Rectal body temperature” (75 mg/kg i.p.) it was 38.55 °C; in the series “Rectal body temperature” (100 mg/kg i.p.) it was 38.97 °C; in “Rectal body temperature” (200 mg/kg i.p.) it was 39.18 °C; in the series “Rectal body temperature” (200 mg/kg i.p., listed as valproate), 39.2 °C. The “alterations in body-temperature, in words” value in “Rectal body temperature” (100 mg/kg i.p.) was “No alterations”. Further, the “Plasma Drug Levels, Average” value in series [1] stood at 182.26 µg/mL. The “Plasma Drug Levels, individual rats” value in series [1] is 197.82 µg/mL and 189.87 µg/mL and 168.89 µg/mL and 173.37 µg/mL and 205.44 µg/mL and 174.06 µg/mL and 157.83 µg/mL and 190.82 µg/mL. Besides, the “rotarod-test, day of exper.” value in series [2] (setting [3]) worked out at 0%; in series [2] (setting [4]), 0%; in series [2] (100 mg/kg i.p., 13′ after application), 0%; in series [2] (200 mg/kg i.p., 13′ after application), 0%. Moreover, the “rotarod test, in words” value in series [2] (100 mg/kg i.p.) and in series [2] (200 mg/kg i.p.) was “performed without failure” each time. Further, in “Drug solubility test”, the solubility came to 20 mg/mL (≈ 139 mM).

For `CC#CCC(CCC)C(=O)O` (centres unmarked) [2-propyl-4-hexynoic acid, 2-n-propyl-4-hexynoic acid], the “BODY TEMP., day of exper., 13′ post appl.” value turned out to be 38.48 °C in “Rectal body temperature” (50 mg/kg i.p.) and 38.49 °C in “Rectal body temperature” (75 mg/kg i.p.). In addition, the “BODY TEMP. (° C.) day of exper. 13′ post appl.” value in “Rectal body temperature” (200 mg/kg, 13′ post appl., mean of 8 rats, ante appl. 38.68) is 37.94 °C. Also, the “body-temperatures, in words” value in the series “Rectal body temperature” (setting [5]) was “maintained within the physiological range”. The “Plasma Drug Levels, Average” value in series [1] was determined as 198.37 µg/mL. In series [1], the “Plasma Drug Levels, individual rats” value was 209.31 µg/mL and 201.34 µg/mL and 218.87 µg/mL and 154.89 µg/mL and 220.70 µg/mL and 180.10 µg/mL and 170.68 µg/mL and 225.95 µg/mL. The “rotarod-test, day of exper.” value amounted to 0% in series [2] (setting [3]); 0% in series [2] (setting [4]); 0% in series [2] (200 mg/kg, 13′, all 8 animals +). For the same molecule, the “rotarod-test, in words” value in series [2] (setting [5]) is listed as “performed successfully by all individuals”. In the series “Drug solubility test”, the solubility stood at 18.5 mg/mL (≈ 120 mM).
